What was measured:
Assay in all cases: CTG-3D luminescence at 96 h relative to day-0 seeding control (ratio to day 0); higher = more growth / less cytotoxicity; PDxO 3D drug screen, 96 h, CTG-3D normalised to day-0 seeding control.
HCI-010 = tested on: HCI-010 (organoid from a breast cancer xenograft)
HCI-001 = tested on: HCI-001 (organoid from a triple-negative breast cancer xenograft)
HCI-016 = tested on: HCI-016 (organoid from a triple-negative breast cancer xenograft)
HCI-003.E2 = tested on: HCI-003.E2 (organoid from an ER-positive breast cancer xenograft)

O=C(/C=C/c1cccnc1)NCCCCC1CCN(C(=O)c2ccccc2)CC1 [FK866]
CTG-3D luminescence at 96 h
Conditions	12.5 pM	0.00025 µM	0.005 µM	0.1 µM	1 µM	10 µM	100 µM	625 fM
HCI-001, days in culture: 240	1.51	1.26	0.813	0.167	0.113	0.0983	0.134	1.79
HCI-001, days in culture: 260	2.05	0.894	0.497	0.126	0.107	0.113	0.125	1.44
HCI-001, days in culture: 269	1.52	1.61	1.1	0.0874	0.0522	0.0578	0.0645	1.6
HCI-001, days in culture: 327	1.45	0.495	0.617	0.125	0.0812	0.0548	0.0869	1.78
HCI-001, days in culture: 346	1.25	1.28	0.416	0.063	0.0715	0.0541	0.128	1.08
HCI-001, days in culture: 364	1.18	1.03	0.913	0.0658	0.0511	0.0476	0.0948	1.5
HCI-010, days in culture: 52	2.32	2.72	1.25	0.204	0.17	0.139	0.119	2.36
HCI-010, days in culture: 65	1.59	1.73	0.682	0.29	0.227	0.202	0.166	1.66
HCI-010, days in culture: 103	3.4	3.45	2.07	0.97	0.904	0.705	0.347	3.29
HCI-016, days in culture: 153	2.99	0.401	0.569	0.026	0.0254	0.0134	0.0183	2.29
HCI-016, days in culture: 172	2.21	1.75	0.508	0.0341	0.0259	0.0131	0.022	1.55
HCI-016, days in culture: 190	1.78	1.44	0.967	0.0245	0.0257	0.0168	0.037	1.08
HCI-016, days in culture: 199	1.45	1.44	0.503	0.0273	0.0129	0.013	0.0134	1.79

HCI-003.E2
Conditions	CTG-3D luminescence at 96 h
12.5 pM	2.05
0.00025 µM	2.19
0.005 µM	0.395
0.1 µM	0.38
1 µM	0.268
10 µM	0.302
100 µM	0.113
625 fM	1.51

Nc1ccn([C@@H]2O[C@H](CO)[C@@H](O)C2(F)F)c(=O)n1 [gemcitabine]
CTG-3D luminescence at 96 h
Conditions	12.5 pM	0.00025 µM	0.005 µM	0.1 µM	1 µM	10 µM	100 µM	625 fM
HCI-001, days in culture: 240	1.56	1.26	1.1	0.596	0.86	0.454	0.527	1.22
HCI-001, days in culture: 260	2.47	0.95	1.44	0.622	0.617	0.522	0.302	1.77
HCI-001, days in culture: 269	1.5	1.62	1.4	0.602	0.42	0.735	0.331	1.53
HCI-001, days in culture: 327	1.48	0.959	1.31	0.497	0.506	0.37	0.222	1.83
HCI-001, days in culture: 346	1.31	1.2	1.1	0.33	0.429	0.5	0.259	1.1
HCI-001, days in culture: 364	1.41	1.23	1.3	0.275	0.401	0.332	0.147	1.33
HCI-010, days in culture: 52	2.22	2.17	0.657	0.455	0.327	0.234	0.123	2.32
HCI-010, days in culture: 65	1.64	1.79	0.508	0.23	0.163	0.0878	0.0546	1.68
HCI-010, days in culture: 103	3.39	3.81	0.867	0.503	0.479	0.241	0.123	3.42
HCI-016, days in culture: 153	2.99	1.91	2.52	0.96	0.509	0.286	0.0753	2.4
HCI-016, days in culture: 172	1.95	1.97	1.64	0.366	0.257	0.0907	0.0466	1.66
HCI-016, days in culture: 190	1.61	1.34	1.52	0.261	0.268	0.122	0.0539	1.21
HCI-016, days in culture: 199	1.57	1.28	1.3	0.174	0.16	0.112	0.0387	1.49

HCI-003.E2
Conditions	CTG-3D luminescence at 96 h
12.5 pM	2.3
0.00025 µM	2.24
0.005 µM	1.81
0.1 µM	1.35
1 µM	1.28
10 µM	1.18
100 µM	0.939
625 fM	2.08

NC(=O)c1cccc2cn(-c3ccc([C@@H]4CCCNC4)cc3)nc12 [niraparib]
CTG-3D luminescence at 96 h
Conditions	12.5 pM	0.00025 µM	0.005 µM	0.1 µM	1 µM	10 µM	100 µM	625 fM
HCI-001, days in culture: 240	1.8	0.913	0.843	1.05	1.61	1.03	-0.07	1.32
HCI-001, days in culture: 260	2.65	1.11	2.11	1.64	1.53	1.92	-0.0335	1.4
HCI-001, days in culture: 269	1.85	1.93	1.42	1.32	1.1	1.23	-0.00141	1.67
HCI-001, days in culture: 327	1.97	1.95	2.3	1.8	1.66	1.28	-0.186	2.27
HCI-001, days in culture: 346	1.69	1.24	1.24	1.4	1.51	1.1	-0.143	1.28
HCI-001, days in culture: 364	1.81	1.28	1.69	1.33	1.33	1.2	-0.0638	1.67
HCI-010, days in culture: 52	1.94	2.41	2.17	2.55	2.02	0.332	0.006	2.06
HCI-010, days in culture: 65	1.44	1.78	1.88	1.63	1.54	0.382	0.000688	1.62
HCI-010, days in culture: 103	3.06	3.18	3.13	3.19	2.67	0.397	0.00829	2.94
HCI-016, days in culture: 153	2.7	1.98	2.84	1.82	0.989	0.444	-0.00489	2.67
HCI-016, days in culture: 172	2.42	2.33	2.02	1.56	1.36	0.272	-0.00828	1.66
HCI-016, days in culture: 190	1.64	1.64	2.08	1.58	0.974	0.189	-0.105	1.59
HCI-016, days in culture: 199	2.02	2.05	1.96	1.54	0.655	0.118	-0.0141	2.02

HCI-003.E2
Conditions	CTG-3D luminescence at 96 h
12.5 pM	2.06
0.00025 µM	2.18
0.005 µM	1.93
0.1 µM	2.06
1 µM	1.81
10 µM	1.28
100 µM	-0.000881
625 fM	1.94

— the supplement of paper PMC8882468
